Reference: ChEMBL document CHEMBL3727348, “3-(aryl or heteroaryl) methyleneindolin-2-one derivatives as inhibitors of cancer stem cell pathway kinases for the treatment of cancer” (2014)

Experiments:
FaDu [1] = experiment: Cytotoxic activity against human FADU bulk cells incubated for 72 hrs by Cell-titer-Glo luminescence assay; format: functional, cell-based
A549 [2] = experiment: Cytotoxic activity against human A549 bulk cells incubated for 72 hrs by Cell-titer-Glo luminescence assay; format: functional, cell-based; settings: A549, 72 h
ACHN [3] = experiment: Cytotoxic activity against human ACHN bulk cells incubated for 72 hrs by Cell-titer-Glo luminescence assay; format: functional, cell-based
FaDu [4] = experiment: Cytotoxic activity against human FADU cancer stem cells incubated for 72 hrs by Cell-titer-Glo luminescence assay; format: functional, cell-based
A549 [5] = experiment: Cytotoxic activity against human A549 cancer stem cells incubated for 72 hrs by Cell-titer-Glo luminescence assay; format: functional, cell-based; settings: A549, 72 h
ACHN [6] = experiment: Cytotoxic activity against human ACHN cancer stem cells incubated for 72 hrs by Cell-titer-Glo luminescence assay; format: functional, cell-based
[7] = target: AMP-activated protein kinase, AMPK (Homo sapiens) (UniProt P54646+O43741+P54619+Q9UGJ0+Q9Y478+Q13131+Q9UGI9); experiment: Inhibition of AMPK in human HeLa cells assessed as kinase phosphorylation level at 5 uM incubated for 6 hrs by SDS-PAGE based chemiluminescence assay; format: cell-based; design: scale not given: the % may be the effect or the level left
[8] = target: T1, Ribosomal protein S6 kinase (Homo sapiens) (UniProt P51812+Q9UBS0+O75676+Q15349+O75582+P23443+Q9UK32+Q15418); experiment: Inhibition of RPS6 kinase in human HeLa cells assessed as p-RPS6 Ser235/236 phosphorylation level at 5 uM incubated for 6 hrs by SDS-PAGE based chemiluminescence assay; format: cell-based; design: scale not given: the % may be the effect or the level left
[9] = target: T1, Ribosomal protein S6 kinase (Homo sapiens); experiment: Inhibition of RPS6 kinase in human HeLa cells assessed as p-RPS6 Ser240/244 phosphorylation level at 5 uM incubated for 6 hrs by SDS-PAGE based chemiluminescence assay; format: cell-based; design: scale not given: the % may be the effect or the level left
[10] = target: Serine/threonine-protein kinase RIO2 (Homo sapiens) (UniProt Q9BVS4); experiment: Inhibition of N-terminal GST-fused full length human recombinant RIOK2 expressed in baculovirus Sf21 cells assessed as reduction in kinase auto-phosphorylation at 10 uM in presence of ATP incubated for 1 hr by ELISA method
Sequence of Serine/threonine-protein kinase RIO2 (Homo sapiens) (Q9BVS4 whole entry, looked up, the tested form may be a part): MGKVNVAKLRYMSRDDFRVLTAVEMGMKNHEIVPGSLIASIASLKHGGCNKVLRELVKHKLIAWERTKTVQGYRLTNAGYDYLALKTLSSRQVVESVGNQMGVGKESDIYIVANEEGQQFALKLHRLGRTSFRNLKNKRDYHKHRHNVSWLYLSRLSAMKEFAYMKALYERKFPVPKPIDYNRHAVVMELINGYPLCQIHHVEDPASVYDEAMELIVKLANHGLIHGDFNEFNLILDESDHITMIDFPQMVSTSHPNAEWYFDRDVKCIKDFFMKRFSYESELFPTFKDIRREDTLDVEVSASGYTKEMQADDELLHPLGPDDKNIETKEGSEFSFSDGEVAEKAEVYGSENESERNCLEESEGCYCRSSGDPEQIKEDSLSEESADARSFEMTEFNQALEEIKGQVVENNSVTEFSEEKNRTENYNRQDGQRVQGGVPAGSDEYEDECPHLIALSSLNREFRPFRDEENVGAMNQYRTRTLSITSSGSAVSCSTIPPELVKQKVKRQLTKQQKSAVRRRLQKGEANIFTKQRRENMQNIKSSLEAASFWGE

| Structure (SMILES) | Activity [7] [%] | Activity [8] [%] | Activity [9] [%] | inhibition [10] [%] | IC50 (FaDu [1]) [µM] | IC50 (A549 [2]) [µM] | IC50 (ACHN [3]) [µM] | IC50 (FaDu [4]) [µM] | IC50 (A549 [5]) [µM] | IC50 (ACHN [6]) [µM] |
| --- | --- | --- | --- | --- | --- | --- | --- | --- | --- | --- |
| CCN(CC)CCNC(=O)c1c(C)[nH]c(/C=C2\C(=O)Nc3ccc(-c4ccc(-c5ccccc5)o4)cc32)c1C | 144 | 19 | 64 |  | 3.09 | 4.3 | 3.66 | 1.41 | 8.25 | 0.25 |
| Cc1cc(C)c(/C=C2\C(=O)Nc3ccc(-c4ccc5cn[nH]c(=O)c5c4)cc32)[nH]1 | 39 | 1 | 24 |  | 2.55 | 1.4 | 1.12 | 2.96 | 3 | 0.26 |
| Cc1[nH]c(/C=C2\C(=O)Nc3ccc(-c4cnn(-c5ccccc5)c4)cc32)c(C)c1C(=O)NCc1nc2ccccc2[nH]1 |  |  |  | 79 |  |  |  |  |  |  |
| Cc1cc(C)c(/C=C2\C(=O)Nc3c2cccc3-c2cncc3ccccc23)[nH]1 | 108 | 86 | 83 |  | 25.8 | 19.7 | 21 |  |  |  |
| Cc1[nH]c(/C=C2\C(=O)Nc3cc(-c4csc(-c5ccccc5)n4)ccc32)c(C)c1C(=O)N1CCOCC1 | 118 | 4 | 44 |  |  |  |  | 41.9 |  |  |
| CCN(CC)CCNC(=O)c1c(C)[nH]c(/C=C2\C(=O)Nc3ccc(-c4nc(-c5ccccc5)cs4)cc32)c1C | 12 | 21 | 64 |  | 1.18 | 4.74 | 1.64 | 0.27 | 4.28 |  |
| CCN(CC)CCNC(=O)c1c(C)[nH]c(/C=C2\C(=O)Nc3c2cccc3-c2csc(-c3ccccc3)n2)c1C | 144 | 2 | 32 |  | 3.75 | 1.96 | 3.2 | 1.26 | 1.57 | 0.28 |
| Cc1[nH]c(/C=C2\C(=O)Nc3ccc(-c4cnn(-c5ccccc5)c4)cc32)c(C)c1C(=O)NC1CNCC(c2ccccc2)C1 (configuration not stated) |  |  |  | 69 |  |  |  |  |  |  |
| Cc1[nH]c(/C=C2\C(=O)Nc3ccc(-c4csc(-c5ccccc5)n4)nc32)c(C)c1C(=O)NCCN1CCCC1 | 41 | 13 | 51 |  | 1.73 | 1.43 | 1.52 | 0.17 | 2.47 | 0.4 |
| Cc1nc(-c2ccccc2)oc1-c1ccc2c(c1)NC(=O)/C2=C\c1[nH]c(C)c(C(=O)N2CCN(C)CC2)c1C | 103 | 2 | 21 |  |  |  |  | 1.6 |  | 0.5 |
| Cc1cc(C)c(/C=C2\C(=O)Nc3c2cccc3-c2cncnc2)[nH]1 | 113 | 51 | 50 |  | 28.1 | 25.2 | 26.9 |  |  |  |
| COc1ncccc1-c1cccc2c1/C(=C/c1[nH]c(C)cc1C)C(=O)N2 | 105 | 67 | 67 |  | 22.6 |  |  |  |  |  |
| Cc1[nH]c(/C=C2\C(=O)Nc3cc(-c4csc(-c5ccccc5)n4)ccc32)c(C)c1C(=O)N1CCN(C)CC1 | 150 | 33 | 73 |  | 4.74 | 26.3 | 11.6 | 1.03 | 1.22 | 0.39 |
| Cc1[nH]c(/C=C2\C(=O)Nc3cccc(-c4ccc(-c5ccccc5)cc4)c32)c(C)c1C(=O)N1CCN(C)CC1 | 105 | 2 | 36 |  | 7.56 | 21.5 | 14.9 | 1.21 | 5.76 |  |
| Cc1cc(C)c(/C=C2\C(=O)Nc3cccc(-c4ccc5cc[nH]c5c4)c32)[nH]1 | 27 | 36 | 35 |  | 16.4 | 16.6 | 20.4 |  | 20.2 | 18.9 |
| Cc1[nH]c(/C=C2\C(=O)Nc3ccc(-c4ccc(-c5ccccc5)s4)cc32)c(C)c1C(=O)N1CCN(C)CC1 |  |  |  | 65 | 25.4 |  |  | 1.16 |  |  |
| COC(=O)c1c(C)[nH]c(/C=C2\C(=O)Nc3ccc(-c4csc(C5CCNCC5)n4)cc32)c1C | 79 | 70 | 83 |  | 0.69 | 0.7 | 0.52 | 0.22 | 2.48 |  |
| COc1ccc(-c2cccc3c2NC(=O)/C3=C\c2[nH]c(C)cc2C)cn1 | 91 | 63 | 59 |  | 28.4 | 24.4 | 28.3 |  | 43.4 |  |
| COc1ncc(-c2cccc3c2/C(=C/c2[nH]c(C)cc2C)C(=O)N3)cn1 | 145 | 77 | 75 |  | 35.3 | 21.1 | 28.1 |  |  |  |
| COC(=O)c1c(C)[nH]c(/C=C2\C(=O)Nc3ccc(-c4csc(-c5ccncc5)n4)cc32)c1C |  |  |  |  | 18.6 | 9.61 | 12.6 | 6.74 | 4.8 | 6.16 |
| CCN(CC)CCNC(=O)c1c(C)[nH]c(/C=C2\C(=O)Nc3cc(-c4oc(-c5ccccc5)nc4C)ccc32)c1C | 151 | 4 | 43 |  | 3.55 | 7.49 | 2.97 | 8.09 |  | 1.65 |
| CCN(CC)CCNC(=O)c1c(C)[nH]c(/C=C2\C(=O)Nc3ccc(-c4ccc(-c5cccs5)s4)cc32)c1C | 21 | 5 | 41 |  | 2.51 |  |  | 0.83 |  |  |
| CCN(CC)CCNC(=O)c1c(C)[nH]c(/C=C2\C(=O)Nc3ccc(-c4ccncc4)cc32)c1C |  |  |  |  | 6.81 | 7.07 | 11.6 | 16.2 | 9.85 | 2.14 |

Continued, in another order:

| Activity [7] [%] | Activity [8] [%] | Activity [9] [%] | inhibition [10] [%] | Structure (SMILES) | IC50 (FaDu [1]) [µM] | IC50 (A549 [2]) [µM] | IC50 (ACHN [3]) [µM] | IC50 (FaDu [4]) [µM] | IC50 (A549 [5]) [µM] | IC50 (ACHN [6]) [µM] |
| --- | --- | --- | --- | --- | --- | --- | --- | --- | --- | --- |
| 8 | 1 | 31 |  | CCN(CC)CCNC(=O)c1c(C)[nH]c(/C=C2\C(=O)Nc3ccc(-c4cccnc4)cc32)c1C | 2.82 | 0.84 | 1.31 | 4.31 | 3.9 | 1.06 |
| 31 | 48 | 54 |  | CCN(CC)CCNC(=O)c1c(C)[nH]c(/C=C2\C(=O)Nc3c2cccc3-c2cccnc2OC)c1C | 3.81 | 5.32 | 3.64 | 1.92 | 6.87 | 2.71 |
|  |  |  | 14 | CCN(CC)CCNC(=O)c1c(C)[nH]c(/C=C2\C(=O)Nc3ccc(-c4ccc(-c5ccccc5)s4)cc32)c1C | 4.74 |  | 7.6 | 1.2 |  |  |
| 83 | 68 | 65 |  | Cc1cc(C)c(/C=C2\C(=O)Nc3c2cccc3-c2ccncc2)[nH]1 |  | 23.5 |  |  |  |  |
| 39 | 29 | 44 |  | CCN(CC)CCNC(=O)c1c(C)[nH]c(/C=C2\C(=O)Nc3c2cccc3-c2ccc3cc[nH]c3c2)c1C | 2.77 | 2.91 | 3 | 2.06 | 3.9 | 1.86 |
| 69 | 6 | 34 |  | Cc1cc(C)c(/C=C2\C(=O)Nc3ccc(-c4csc(C5CCCNC5)n4)cc32)[nH]1 (configuration not stated) | 1.58 | 1.34 | 1.64 | 0.48 | 1.7 | 0.05 |
| 96 | 57 | 54 |  | COc1ncc(-c2cccc3c2NC(=O)/C3=C\c2[nH]c(C)cc2C)cn1 | 20.8 | 17.7 | 21.9 |  | 34.7 | 17.5 |
|  |  |  | 19 | Cc1[nH]c(/C=C2\C(=O)Nc3ccc(-c4nnc(-c5ccccc5)s4)cc32)c(C)c1C(=O)N1CCN(C)CC1 | 14.1 | 48.9 |  | 0.23 |  |  |
| 198 | 44 | 43 |  | Cc1cc(C)c(/C=C2\C(=O)Nc3cccc(-c4cncnc4)c32)[nH]1 | 39.7 | 16.3 | 16.8 |  |  |  |
| 103 | 74 | 75 |  | Cc1cncc(-c2cccc3c2NC(=O)/C3=C\c2[nH]c(C)cc2C)c1 | 26.4 | 21.2 | 16 |  | 32 | 32 |
| 108 | 36 | 68 |  | Cc1[nH]c(/C=C2\C(=O)Nc3cc(-c4ccc(-c5ccccc5)s4)ccc32)c(C)c1C(=O)N1CCN(C)CC1 |  |  |  |  |  |  |
| 150 | 5 | 56 |  | CCN(CC)CCNC(=O)c1c(C)[nH]c(/C=C2\C(=O)Nc3cc(-c4ccc(-c5ccccc5)s4)ccc32)c1C |  |  |  | 30.5 |  |  |
